Like-named read-outs stand apart in the source and are kept apart here.
Assays:
EGFR L858R/T790M = molecular target: T1, EGFR L858R/T790M (Homo sapiens, UniProt P00533, L858R/T790M); assay: Inhibition of EGFR L858R/T790M biochemical enzymatic activity (HTRF); details: 1 mM ATP
T1 construct: purchased Carna Bio
Outline: (§1)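 Each enzyme was first added to plates holding compound. The reaction was then started with ATP (1 mM) and peptide substrate (1 μM). It was stopped after 1 h at room temperature with EDTA detection reagents and read at 615/665 nm to derive IC50s.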

EGFR wild type = molecular target: T2, EGFR wild type (Homo sapiens, UniProt P00533); assay: Inhibition of EGFR wild type biochemical enzymatic activity (HTRF); details: 1 mM ATP
T2 construct: purchased Carna Bio
Outline: as §1

[1] = system: Ba/F3 cells expressing EGFR mutations; assay: Cell proliferation assay, Ba/F3 cells expressing EGFR mutations (CellTiter-Glo, 72 hours); type: cell-based
Outline: (§2)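 Ba/F3 cells carrying EGFR mutants (5000/well) or PC-9 cells (500/well) in RPMI1640 were dosed with compound series after overnight attachment and grown 72 h. Viability read by CellTiter-Glo, with day-0 counts subtracted; GI50 from curve fits of % proliferation versus DMSO control.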

EGFR (d746-750 C797S) = molecular target: T3, EGFR (d746-750 C797S) (Homo sapiens, UniProt P00533, C797S/DEL746-750); assay: Inhibition of EGFR (d746-750 C797S) biochemical enzymatic activity (HTRF); details: 1 mM ATP
T3 construct: purchased signalchem
Outline: as §1

PC-9 = assay: Cell proliferation assay, PC-9 cells (CellTiter-Glo, 72 hours); type: cell-based; details: PC9 cells, read-out: GI50 PC9
Outline: as §2

EGFR L858R = molecular target: T4, EGFR L858R (Homo sapiens, UniProt P00533, L858R); assay: Inhibition of EGFR L858R biochemical enzymatic activity (HTRF); details: 1 mM ATP
T4 construct: purchased Carna Bio
Outline: as §1

EGFR Exon19Del/T790M = molecular target: T5, EGFR Exon19Del/T790M (Homo sapiens, UniProt P00533, DEL746-750/T790M); assay: Inhibition of EGFR Exon19Del/T790M biochemical enzymatic activity (HTRF); details: 1 mM ATP
T5 construct: purchased Carna Bio
Outline: as §1

EGFR (C797S L858R) = molecular target: T6, EGFR (C797S L858R) (Homo sapiens, UniProt P00533, C797S/L858R); assay: Inhibition of EGFR (C797S L858R) biochemical enzymatic activity (HTRF); details: 1 mM ATP
T6 construct: purchased signalchem
Outline: as §1

EGFR[T790M/C797S/L858R] = molecular target: T7, EGFR[T790M/C797S/L858R] (Homo sapiens, UniProt P00533, C797S/L858R/T790M); assay: Inhibition of EGFR[T790M/C797S/L858R] biochemical enzymatic activity (HTRF); details: 1 mM ATP
T7 construct: purchased Carna Bio
Outline: as §1

[2] = molecular target: T8, EGFR[T790M/C797S/d746-750] (Homo sapiens, UniProt P00533, C797S/DEL746-750/T790M); assay: Inhibition of EGFR[T790M/C797S/d746-750] biochemical enzymatic activity (HTRF)
T8 construct: purchased Carna Bio
Outline: as §1

A-431 = assay: Cell proliferation assay, A-431 cells (GI50, Table 6); type: cell-based; details: Homo sapiens, A-431, A-431 cells
Experimental: [Worded in the source for another cell line; this cell line is reported under the same test.] Ba/F3 cells expressing EGFR mutations were seeded in 384-well plates at 5000 cells/well in RPMI1640 medium containing […]. PC-9 at 500 cells/well was seeded into 384-well plates in RPMI1640 medium with 10% FBS. After overnight incubation, the assay plates were dosed with compounds at a series of concentrations. Alongside dosing the assay plates, the day 0 plate was processed using CellTiter-Glo® Luminescent Cell Viability Assay (Promega) to measure the number of viable cells (G0). The assay plates were further incubated for 72 hours and the number of viable cells (G3) was measured. The percentage of proliferation was calculated as: […]=100×(G3 value of sample well−G0 value)/(G3 value of DMSO control−G0 value). The concentration of compound producing 50% proliferation inhibition (GI50) was further calculated in best-fit curves using XLFit software. N/A=not available.

EGFR Exon19Del = molecular target: T9, EGFR Exon19Del (Homo sapiens, UniProt P00533, DEL746-750); assay: Inhibition of EGFR Exon19Del biochemical enzymatic activity (HTRF); details: read-out: IC50 @Del19
T9 construct: purchased Carna Bio
Outline: as §1

[3] = EGFR L858R-T790M, 1 h, room temperature, read-out: IC50 (nM) @L858R-T790M
[4] = EGFR WT, 1 h, room temperature, read-out: IC50 (nM) @WT
[5] = Mus musculus, BaF3, 72 h, BaF3 cells, EGFR DEL19 - C797S, read-out: GI50 DEL19 - C797S/BaF3
[6] = Mus musculus, BaF3, 72 h, BaF3 cells, EGFR DEL19 - T790-C797S, read-out: GI50 DEL19 - T790-C797S/BaF3
[7] = Mus musculus, BaF3, 72 h, BaF3 cells, EGFR L858R - C797S, read-out: GI50 L858R - C797S/BaF3
[8] = Mus musculus, BaF3, 72 h, BaF3 cells, EGFR L858R - T790-C797S, read-out: GI50 L858R - T790-C797S/BaF3
[9] = Mus musculus, BaF3, 72 h, BaF3 cells, EGFR L858R - T790M, read-out: GI50 L858R - T790M/BaF3
[10] = Mus musculus, BaF3, 72 h, BaF3 cells, EGFR L858R, read-out: GI50 L858R/BaF3
[11] = Mus musculus, BaF3, 72 h, EGFR DEL19 - T790M, read-out: GI50 DEL19 - T790M
[12] = EGFR Del19-C797S, 1 h, room temperature, read-out: IC50 (nM) @Del19-C797S
[13] = 1 h, room temperature, read-out: IC50 (nM) @L858R
[14] = EGFR Del19-T790M, 1 h, room temperature, read-out: IC50 (nM) @Del19-T790M
[15] = EGFR L858-C797S, 1 h, room temperature, read-out: IC50 (nM) @L858-C797S
[16] = EGFR T790M-C797S-L858R, 1 h, room temperature, read-out: IC50 (nM) @T790M- C797S - L858R
[17] = EGFR T790M-C797S-Del19, 1 mM ATP, 1 h, room temperature, read-out: IC50 (nM) @T790M - C797S - Del19
[18] = EGFR Del19, 1 mM ATP, 1 h, room temperature

T7 sequence (P00533 25-1210 T790M/C797S/L858R): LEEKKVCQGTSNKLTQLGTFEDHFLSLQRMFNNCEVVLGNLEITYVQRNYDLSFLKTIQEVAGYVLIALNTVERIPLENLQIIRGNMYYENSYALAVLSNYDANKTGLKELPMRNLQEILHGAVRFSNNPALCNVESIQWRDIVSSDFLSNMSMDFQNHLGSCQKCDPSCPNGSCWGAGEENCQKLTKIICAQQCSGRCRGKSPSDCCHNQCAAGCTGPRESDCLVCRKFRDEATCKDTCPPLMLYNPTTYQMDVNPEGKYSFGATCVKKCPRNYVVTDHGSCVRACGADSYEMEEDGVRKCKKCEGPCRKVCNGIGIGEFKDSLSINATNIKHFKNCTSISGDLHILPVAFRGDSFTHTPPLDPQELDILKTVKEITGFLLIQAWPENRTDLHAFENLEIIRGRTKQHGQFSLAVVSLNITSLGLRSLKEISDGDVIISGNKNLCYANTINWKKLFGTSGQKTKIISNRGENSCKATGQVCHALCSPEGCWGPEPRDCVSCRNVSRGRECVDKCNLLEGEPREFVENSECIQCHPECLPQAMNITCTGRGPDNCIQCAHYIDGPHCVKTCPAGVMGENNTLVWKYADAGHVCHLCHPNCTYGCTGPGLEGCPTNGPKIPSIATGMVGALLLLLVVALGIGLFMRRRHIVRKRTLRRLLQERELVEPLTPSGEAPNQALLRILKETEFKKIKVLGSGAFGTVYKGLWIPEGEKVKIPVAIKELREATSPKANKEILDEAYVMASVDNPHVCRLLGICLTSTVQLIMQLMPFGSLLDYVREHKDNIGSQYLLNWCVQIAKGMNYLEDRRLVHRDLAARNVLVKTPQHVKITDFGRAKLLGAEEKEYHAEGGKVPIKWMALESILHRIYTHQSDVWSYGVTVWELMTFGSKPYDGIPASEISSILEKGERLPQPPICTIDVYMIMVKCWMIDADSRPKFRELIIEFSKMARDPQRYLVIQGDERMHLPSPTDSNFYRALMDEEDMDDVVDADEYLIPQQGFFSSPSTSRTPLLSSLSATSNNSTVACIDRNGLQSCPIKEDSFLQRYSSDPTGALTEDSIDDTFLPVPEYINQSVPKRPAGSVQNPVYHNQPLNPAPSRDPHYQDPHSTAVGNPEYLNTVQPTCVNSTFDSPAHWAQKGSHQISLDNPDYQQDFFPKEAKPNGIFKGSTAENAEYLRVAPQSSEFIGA
T8 sequence (P00533 with tags, fused parts or gaps DEL746-750/T790M/C797S limits assumed): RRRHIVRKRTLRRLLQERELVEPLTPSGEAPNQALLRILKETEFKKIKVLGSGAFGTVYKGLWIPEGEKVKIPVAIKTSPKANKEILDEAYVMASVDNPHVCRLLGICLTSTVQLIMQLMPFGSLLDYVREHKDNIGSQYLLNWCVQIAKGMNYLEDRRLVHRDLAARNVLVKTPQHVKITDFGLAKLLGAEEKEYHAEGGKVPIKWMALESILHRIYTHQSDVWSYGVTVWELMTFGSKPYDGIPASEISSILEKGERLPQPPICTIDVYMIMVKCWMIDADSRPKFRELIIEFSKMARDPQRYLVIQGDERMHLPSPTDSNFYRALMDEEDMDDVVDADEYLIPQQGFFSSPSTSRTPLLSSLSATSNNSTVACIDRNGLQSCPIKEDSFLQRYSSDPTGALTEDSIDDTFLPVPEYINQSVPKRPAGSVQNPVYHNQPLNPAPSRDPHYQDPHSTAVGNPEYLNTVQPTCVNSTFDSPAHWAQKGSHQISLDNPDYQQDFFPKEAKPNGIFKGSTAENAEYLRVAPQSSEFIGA
T2 sequence (P00533 25-1210): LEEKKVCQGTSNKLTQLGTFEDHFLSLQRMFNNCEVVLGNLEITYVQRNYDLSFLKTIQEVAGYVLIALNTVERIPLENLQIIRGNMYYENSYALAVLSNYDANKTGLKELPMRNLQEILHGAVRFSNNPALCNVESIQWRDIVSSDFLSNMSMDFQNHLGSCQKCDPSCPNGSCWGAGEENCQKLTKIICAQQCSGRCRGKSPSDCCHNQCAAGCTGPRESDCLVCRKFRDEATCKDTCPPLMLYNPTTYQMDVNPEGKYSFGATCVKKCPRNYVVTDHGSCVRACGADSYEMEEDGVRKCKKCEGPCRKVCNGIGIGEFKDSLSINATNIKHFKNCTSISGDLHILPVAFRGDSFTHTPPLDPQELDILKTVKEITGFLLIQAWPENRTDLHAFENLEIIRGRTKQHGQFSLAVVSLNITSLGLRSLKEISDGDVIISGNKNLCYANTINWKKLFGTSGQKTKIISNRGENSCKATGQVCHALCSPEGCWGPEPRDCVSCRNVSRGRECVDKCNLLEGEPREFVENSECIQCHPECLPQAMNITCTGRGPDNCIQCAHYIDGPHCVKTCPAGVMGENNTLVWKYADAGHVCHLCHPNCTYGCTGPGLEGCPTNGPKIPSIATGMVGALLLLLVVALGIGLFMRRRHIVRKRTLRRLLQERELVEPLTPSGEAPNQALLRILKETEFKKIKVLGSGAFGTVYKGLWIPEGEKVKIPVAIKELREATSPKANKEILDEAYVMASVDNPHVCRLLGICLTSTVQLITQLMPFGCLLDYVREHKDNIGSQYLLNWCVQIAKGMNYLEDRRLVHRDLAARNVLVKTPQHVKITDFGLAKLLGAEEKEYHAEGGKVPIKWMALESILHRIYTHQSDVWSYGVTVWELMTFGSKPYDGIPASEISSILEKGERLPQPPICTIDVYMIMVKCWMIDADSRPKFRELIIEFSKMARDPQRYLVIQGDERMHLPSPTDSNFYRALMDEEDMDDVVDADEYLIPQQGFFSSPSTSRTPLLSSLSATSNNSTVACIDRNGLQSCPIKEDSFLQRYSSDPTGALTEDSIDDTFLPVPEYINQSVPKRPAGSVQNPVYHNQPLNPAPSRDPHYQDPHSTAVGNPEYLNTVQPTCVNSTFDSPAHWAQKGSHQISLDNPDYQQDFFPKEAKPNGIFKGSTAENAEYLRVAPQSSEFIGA
T9 sequence (P00533 with tags, fused parts or gaps DEL746-750 limits assumed): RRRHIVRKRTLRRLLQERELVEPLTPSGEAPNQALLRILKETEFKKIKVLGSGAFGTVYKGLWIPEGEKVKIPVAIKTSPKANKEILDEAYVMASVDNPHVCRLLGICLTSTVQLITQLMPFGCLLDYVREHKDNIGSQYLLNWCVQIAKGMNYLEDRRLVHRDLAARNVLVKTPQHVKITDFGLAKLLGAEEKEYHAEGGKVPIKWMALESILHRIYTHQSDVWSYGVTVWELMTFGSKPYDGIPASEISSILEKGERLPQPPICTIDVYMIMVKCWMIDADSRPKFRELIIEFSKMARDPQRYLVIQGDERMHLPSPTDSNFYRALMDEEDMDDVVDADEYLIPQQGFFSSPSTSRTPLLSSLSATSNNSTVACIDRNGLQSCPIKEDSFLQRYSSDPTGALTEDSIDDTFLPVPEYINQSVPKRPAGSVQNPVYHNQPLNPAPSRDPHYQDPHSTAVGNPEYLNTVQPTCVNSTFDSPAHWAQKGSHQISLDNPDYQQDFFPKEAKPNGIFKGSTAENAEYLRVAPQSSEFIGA
T1 sequence (P00533 25-1210 T790M/L858R): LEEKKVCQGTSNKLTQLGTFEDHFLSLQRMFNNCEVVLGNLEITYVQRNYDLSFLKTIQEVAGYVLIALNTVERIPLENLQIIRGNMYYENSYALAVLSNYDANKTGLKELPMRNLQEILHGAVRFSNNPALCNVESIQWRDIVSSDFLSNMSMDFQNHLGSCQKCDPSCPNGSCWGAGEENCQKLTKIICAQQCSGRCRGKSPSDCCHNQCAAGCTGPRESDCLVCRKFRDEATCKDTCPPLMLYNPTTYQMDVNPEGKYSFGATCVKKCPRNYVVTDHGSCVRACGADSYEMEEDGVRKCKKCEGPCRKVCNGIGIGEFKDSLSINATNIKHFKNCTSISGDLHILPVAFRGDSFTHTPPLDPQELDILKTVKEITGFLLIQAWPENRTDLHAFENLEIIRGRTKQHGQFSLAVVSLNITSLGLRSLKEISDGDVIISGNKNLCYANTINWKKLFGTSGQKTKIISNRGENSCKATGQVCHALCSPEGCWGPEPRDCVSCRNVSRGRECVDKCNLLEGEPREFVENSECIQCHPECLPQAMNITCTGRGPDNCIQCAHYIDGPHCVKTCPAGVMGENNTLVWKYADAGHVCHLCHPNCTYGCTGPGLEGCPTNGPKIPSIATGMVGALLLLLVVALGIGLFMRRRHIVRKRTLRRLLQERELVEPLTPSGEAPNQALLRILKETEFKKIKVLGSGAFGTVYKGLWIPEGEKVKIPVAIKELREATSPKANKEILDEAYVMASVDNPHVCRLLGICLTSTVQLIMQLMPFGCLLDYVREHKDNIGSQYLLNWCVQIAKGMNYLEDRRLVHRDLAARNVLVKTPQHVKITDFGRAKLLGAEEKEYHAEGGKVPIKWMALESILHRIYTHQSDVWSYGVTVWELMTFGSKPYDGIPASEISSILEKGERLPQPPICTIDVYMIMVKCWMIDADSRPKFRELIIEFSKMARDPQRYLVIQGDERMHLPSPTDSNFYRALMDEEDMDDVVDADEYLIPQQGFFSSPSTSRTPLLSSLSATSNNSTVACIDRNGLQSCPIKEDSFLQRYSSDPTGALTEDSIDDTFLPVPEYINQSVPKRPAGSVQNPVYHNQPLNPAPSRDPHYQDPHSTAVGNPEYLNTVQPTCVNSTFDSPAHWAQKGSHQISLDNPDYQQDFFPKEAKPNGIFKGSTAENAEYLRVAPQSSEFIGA

| Compound | IC50 (EGFR L858R/T790M; [3]) | IC50 (EGFR wild type; [4]) | GI50 [1, 5] | GI50 [1, 6] | GI50 [1, 7] | GI50 [1, 8] | GI50 [1, 9] | GI50 [1, 10] | GI50 [1, 11] | IC50 (EGFR (d746-750 C797S); [12]) | GI50 (PC-9; Homo sapiens, PC-9, 72 h) | IC50 (EGFR L858R; [13]) | IC50 (EGFR Exon19Del/T790M; [14]) | IC50 (EGFR (C797S L858R); [15]) | IC50 (EGFR[T790M/C797S/L858R]; [16]) | IC50 [2, 17] | GI50 (A-431) | IC50 (EGFR Exon19Del; [18]) | other results |
| --- | --- | --- | --- | --- | --- | --- | --- | --- | --- | --- | --- | --- | --- | --- | --- | --- | --- | --- | --- |
| Cc1cc2cc(n1)-c1cnn(C)c1OCCN1CC3CCC(CC3)(C1)n1c(nc3ccc(N4CCOCC4)cc31)NC2=O [Example B2, 15,21-Dimethyl-5-(morpholin-4-yl)-23-oxa-2,9,11,16,20,21,26-heptaazaheptacyclo[26.2.2.1^{1,26}.1^{13,17}.0^{2,10}.0^{3,8}.0^{18,22}]tetratriaconta-3,5,7,9,13,15,17(34),18(22),19-nonaen-12-one] | 25 nM | > 5000 nM | 18 nM | 4.7 nM | 153 nM | 10 nM | 14 nM | 125 nM | 5 nM | 560 nM | 102 nM | 320 nM | 13 nM | 28 nM | 36 nM | 20 nM | 3160 nM | 47 nM |  |
| Cn1ncc2c1OCCN1CC3CCC(CC3)(C1)n1c(nc3ccc(N4CCN(C5CC5)CC4)cc31)NC(=O)c1cc-2c(=O)n(C)c1 [Example A128] | 307 nM | > 5000 nM | 13 nM | 90 nM | 65 nM | 47 nM | 119 nM | 11 nM | 66 nM | 4.9 nM | 61 nM | 202 nM | 8 nM | 49 nM | 33 nM | 4.7 nM | 2650 nM | 11 nM |  |
| Cc1cc2cc(n1)-c1cnn(C)c1OCCN1CC3CCC(C3)(C1)n1c(nc3ccc(N4CC5CN(C)CC5C4)cc31)NC2=O (single isomer, unassigned) [Example B43B] |  |  |  |  |  |  |  |  |  |  |  |  |  |  |  |  | 437 nM |  | IC50 (EGFR L858R/T790M; EGFR L858R/T790M, 1 h at room temperature, read-out: IC50 @L858R-T790M): 4.8 nM; IC50 (EGFR wild type; EGFR wild type, 1 h at room temperature, read-out: IC50 @WT): 489 nM; GI50 ([1]; BaF3 cells, EGFR DEL19 - C797S, read-out: GI50 DEL19 - C797S/BaF3): 2 nM; GI50 ([1]; BaF3 cells, EGFR DEL19 - T790-C797S, read-out: GI50 DEL19 - T790-C797S/BaF3): 2 nM; GI50 ([1]; BaF3 cells, EGFR L858R - C797S, read-out: GI50 L858R - C797S/BaF3): 7 nM; GI50 ([1]; BaF3 cells, EGFR L858R - T790-C797S, read-out: GI50 L858R - T790-C797S/BaF3): 2 nM; GI50 ([1]; BaF3 cells, EGFR L858R - T790M, read-out: GI50 L858R - T790M/BaF3): 2 nM; GI50 ([1]; BaF3 cells, EGFR L858R, read-out: GI50 L858R/BaF3): 12 nM; GI50 ([1]; EGFR DEL19 - T790M, read-out: GI50 DEL19 - T790M): 2 nM; IC50 (EGFR (d746-750 C797S); EGFR (d746-750 C797S), 1 h at room temperature, read-out: IC50 @Del19-C797S): 3 nM; GI50 (PC-9): 7 nM; IC50 (EGFR L858R; 1 h at room temperature, read-out: IC50 @L858R): 36 nM; IC50 (EGFR Exon19Del/T790M; EGFR Exon19Del/T790M, 1 h at room temperature, read-out: IC50 @Del19-T790M): 5.2 nM; IC50 (EGFR (C797S L858R); EGFR (C797S L858R), 1 h at room temperature, read-out: IC50 @L858-C797S): 9 nM; IC50 (EGFR[T790M/C797S/L858R]; EGFR[T790M/C797S/L858R], 1 h at room temperature, read-out: IC50 @T790M- C797S - L858R): 2.3 nM; IC50 ([2]; EGFR[T790M/C797S/d746-750], 1 mM ATP, 1 h at room temperature, read-out: IC50 @T790M - C797S - Del19): 3 nM; IC50 (EGFR Exon19Del; EGFR Exon19Del, 1 mM ATP, 1 h at room temperature): 6.6 nM |

Reference: US20260365670A1, “EGFR INHIBITORS AND USES THEREOF” (DIZAL (JIANGSU) PHARMACEUTICAL CO., LTD., priority 2022, published 2026)
